Like-named read-outs stand apart in the source and are kept apart here.

One series deals with T1, AChE (from electric eel) (Electrophorus electricus, UniProt O42275).
T1 construct: purchased Merck & Co
The series is described as follows: biochemical. The format is biochemical. The note with it: for IC50: mean ± SEM, NA = No potent inhibitory activity. On the procedure: (§1) Photometric 96-well microplates made from polystyrene (Thermo Scientific, Waltham, […]. USA) were used for measurement purposes.
(§2) AChE and BuChE inhibitory activities were measured by the spectrophotometric method of Ellman, with slight modification. Briefly, all in vitro assays were performed in 0.1 M NaH2PO4/Na2HPO4 buffer, pH 7.4, using a THERMO Enzyme-labeled Instrument. The enzyme solutions were prepared to obtain 2.0 units/mL in 2.0 mL aliquots. The assay medium (1 mL) consisted of phosphate buffer (pH 7.4), 10 μL of the enzyme, 30 μL of 0.01 M DTNB, and 30 μL of substrate (ATC or BTC) at a concentration of 0.01 M. The test and reference compounds were first dissolved in DMSO (5‰) and fetal bovine serum (1‰), and then diluted in 0.1 M NaH2PO4/Na2HPO4 buffer (pH 7.4) to provide a final concentration range. The inhibitors were added to the assay solution containing enzyme, buffer, and DTNB with pre-incubation for 20 min at 37 °C, prior to the addition of the substrate. The activity was determined by measuring the increase in absorbance at 410 nm at 1 min intervals at 37 °C. The data were calculated according to the method described by Ellman et al. Each concentration was assayed in triplicate. Blanks containing all of the components except AChE were included in the analyses.

Series [1] deals with T2, BuChE (from equine serum) (Equus caballus, UniProt P81908).
T2 construct: purchased Merck & Co; host or cells: equine serum
T2 sequence (P81908 whole entry): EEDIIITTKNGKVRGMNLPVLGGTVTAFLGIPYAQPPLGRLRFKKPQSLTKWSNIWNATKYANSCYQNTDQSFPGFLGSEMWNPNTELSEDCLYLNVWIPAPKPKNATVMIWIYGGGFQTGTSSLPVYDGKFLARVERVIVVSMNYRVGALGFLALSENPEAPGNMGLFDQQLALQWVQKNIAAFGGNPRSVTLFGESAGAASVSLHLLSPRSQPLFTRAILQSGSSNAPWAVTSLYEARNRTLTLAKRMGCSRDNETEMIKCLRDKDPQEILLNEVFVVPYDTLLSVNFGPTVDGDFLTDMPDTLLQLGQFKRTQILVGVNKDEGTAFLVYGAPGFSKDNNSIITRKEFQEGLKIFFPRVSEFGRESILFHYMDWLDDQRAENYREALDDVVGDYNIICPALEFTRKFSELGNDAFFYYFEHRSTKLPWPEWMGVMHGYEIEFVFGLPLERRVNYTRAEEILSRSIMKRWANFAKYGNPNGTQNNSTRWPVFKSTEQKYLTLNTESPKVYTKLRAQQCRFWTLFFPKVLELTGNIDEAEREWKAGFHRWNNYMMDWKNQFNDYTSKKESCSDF
Description: biochemical. The note with it: mean ± SEM. The method, then:
as §1, §2

The target in series [2] is T3, Aβ (1-42) (Homo sapiens, UniProt P05067).
T3 construct: Aβ (1-42) peptide (Sigma-Aldrich); purchased Sigma-Aldrich
T3 sequence (P05067 672-713): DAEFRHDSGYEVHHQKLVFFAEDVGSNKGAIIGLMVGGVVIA
The series is described as follows: biochemical. The conditions noted are these: self-induced aggregation, thioflavin-T; Aβ 20 μM, 37 °C, 24 h; NA = No potent inhibitory activity. On the procedure:
A Thioflavin T-based fluorometric assay was performed in order to investigate the self-induced Aβ (1-42) aggregation. Briefly, compounds to be tested were firstly dissolved in DMSO to obtain a 10 mM solution and then diluted in phosphate buffer (pH 7.4) to provide a final concentration range. […] After incubation, thioflavin-T (5 μM in 50 mM glycine-NaOH buffer, pH 8.0) was added into the above 96-well microplate and the samples were diluted to a final volume of 150 μL. […] Each inhibitor was run in triplicate.

Series [3] deals with T3, Aβ (1-42). Description: Aβ (1-42) fibril formation monitored by transmission electron microscopy (TEM). The format is biochemical. The conditions noted are these: Aβ (1-42) 20 µM, compound 50 µM, 37 °C, 24 h. The method, then: Aβ (1-42) peptide (Sigma-Aldrich) was added into a 96-well microplate and then diluted by phosphate buffer (10 mM, pH 7.4) to provide a concentration of 100 μM solution at 4 °C before use and the sample preparation procedure was the same as that used for the Thioflavin T assay. Aliquots (5 μL) of the samples were placed on a carbon-coated copper/rhodium grid for 2 min at room temperature. Each grid was stained with phosphomolybdic acid solution (3%, 5 μL) for 2 min. After draining off the excess staining solution, the specimen was transferred for imaging by transmission electron microscopy.

Another series has as its target T4, AChE (Electrophorus electricus, UniProt O42275).
T4 construct: purchased Merck & Co
Description: Kinetic study of AChE inhibition (Lineweaver-Burk plot). The conditions noted are these: substrate 0.1–0.4 mM. The format is biochemical. The method, then:
The assay solution (100 μL) was afforded by the addition of 30 μL of DTNB (0.01 M), 10 μL of 2 units/mL AChE, and 30 μL of substrate (ATC) to the phosphate buffer (0.1 M, pH 7.0). Three different concentrations of 8q were added to the assay solution with the AChE and pre-incubated for 20 min at 37 °C, followed by the addition of substrate in different concentrations. Kinetic characterization of the hydrolysis of ATC catalysed by AChE was carried out at 410 nm. A parallel control was made with the assay solution of no inhibitor for each time. The plots were assessed by a weighted least square analysis that assumed the variance of V to be a constant percentage of V for the entire data set.
Figure 2 Determination of the inhibitory type of selected compound 8q on AChE. Merged Lineweaver-Burk reciprocal plots of AChE initial velocity with increasing substrate concentrations (0.1–0.4 mM) in the absence or presence of 8q. Lines were derived from a weighted least-squares analysis of data points.

The next series deals with HepG2 cells. The series is classed as cell-based. The conditions noted are these: for Cell viability: 24 h, CCK-8; for Cytotoxicity (in words): HepG2 cells, up to 500 μM. On the procedure: One of the best documented side-effects of the drug discovery and development of AD is cytotoxicity. To probe whether such a type of target compounds involves cytotoxic effects, we respectively treated HepG2 cells and SH-SY5Y cells with several concentrations of the corresponding compound. Cell viability was determined by a CCK-8 assay. […].
HepG2 cells (human hepatocellular liver carcinoma cell line from American Type Culture Collection, ATCC) were cultured in Eagle’s minimum essential medium (EMEM) supplemented with 10% heat-inactivated fetal bovine serum (FBS), and 100 U/mL of penicillin/streptomycin (Gino Biomedical Technology Co. LTD., Hangzhou, China). Cultures were seeded into flasks containing supplemented medium and maintained at 37 °C in a humidified atmosphere of 5% CO2. For assays, cells (1.0 × 10^5 cells/well) were seeded in a 96-well plate in complete medium, the medium was removed after 24 h, and cells were exposed to the increasing concentrations of compounds 8q or 8r (0, 25, 50, 125, 200, 300, 400, and 500 μM) in DMEM with no serum for a further 24 h. Cell survival was measured through a CCK-8 assay. All compounds were dissolved in pure DMSO.

The next series concerns SH-SY5Y cells. The series is classed as cell-based. The note with it: for Cytotoxicity (in words): SH-SY5Y cells, up to 500 μM; for Cell viability: SH-SY5Y, 24 h, CCK-8. The method, then:
To probe whether such a type of target compounds involves cytotoxic effects, we respectively treated HepG2 cells and SH-SY5Y cells with several concentrations of the corresponding compound. Cell viability was determined by a CCK-8 assay.
SH-SY5Y cells (human neuroblastoma cell line from American Type Culture Collection, ATCC, Manassas, VA, USA) were seeded into 96-well plates at a density of 4 × 10^4 cells/mL in Dulbecco’s modified Eagle’s medium (DMEM) supplemented with 10% FBS and 100 U/mL of penicillin/streptomycin (Gino Biomedical Technology Co. LTD., Hangzhou, China), and incubated in a humidified atmosphere containing 5% CO2 at 37 °C. […] After this incubation, 10 μL/well of CCK-8 (5 mg/mL) was added and incubated at 37 °C for 4 h. The optical density (OD) of each well was measured using an Epoch Microplate Spectrophotometer (BioTek Instruments, Inc., Winooski, VT, USA) with a test wavelength of 450, 630 nm.

T1 sequence (O42275 24-633): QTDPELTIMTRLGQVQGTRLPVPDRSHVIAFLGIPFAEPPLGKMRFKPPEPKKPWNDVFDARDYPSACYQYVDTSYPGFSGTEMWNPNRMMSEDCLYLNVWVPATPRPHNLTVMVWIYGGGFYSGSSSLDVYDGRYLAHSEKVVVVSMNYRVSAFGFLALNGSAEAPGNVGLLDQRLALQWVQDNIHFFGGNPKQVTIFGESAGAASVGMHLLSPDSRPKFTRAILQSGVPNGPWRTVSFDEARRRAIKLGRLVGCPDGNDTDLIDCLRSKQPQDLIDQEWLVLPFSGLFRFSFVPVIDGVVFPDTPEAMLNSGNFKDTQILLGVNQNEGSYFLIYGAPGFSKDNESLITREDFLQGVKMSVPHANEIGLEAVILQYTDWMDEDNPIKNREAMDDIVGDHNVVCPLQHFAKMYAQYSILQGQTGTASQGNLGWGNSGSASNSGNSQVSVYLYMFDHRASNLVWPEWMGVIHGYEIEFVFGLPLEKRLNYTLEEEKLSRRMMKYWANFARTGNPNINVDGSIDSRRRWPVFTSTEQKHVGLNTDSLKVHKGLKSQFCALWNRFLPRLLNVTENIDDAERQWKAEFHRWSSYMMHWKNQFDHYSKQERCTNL
T4 sequence (O42275 24-633): as above

One may read the IC50 as the concentration that inhibits the measured activity by half. High values mean a need for much substance, low ones inhibition by little substance. For `Cc1nc(C)c(/C=C/C(=O)OCCCOC(=O)c2nc(C)c(C)nc2C)nc1C` [Compound 8q, 3-{[(2E)-3-(3,5,6-Trimethylpyrazin-2-yl)prop-2-enoyl]oxy}propyl 3,5,6-trimethylpyrazine-2-carboxylate], the IC50 worked out at 0.00139 ± 0.00033 µM against AChE (from electric eel), 4040 ± 910 µM in series [1] and 17.36 ± 0.027 µM on Aβ (1-42) [2]. In addition, the “Aβ amorphous deposits seen by TEM” value at Aβ (1-42) [3] was “could obviously alleviate the formation of Aβ amorphous deposits compared with tacrine”. The “Aβ fibril formation seen by TEM” value at Aβ (1-42) [3] was “no obvious Aβ fibril was detected”. For the same molecule, on AChE, the “Inhibitory type on AChE” value is recorded as “mixed-type inhibitor”. Moreover, the Cell viability is recorded as 96.81 ± 3.05 ^ns percentage of control in the series with HepG2 cells (HepG2, 25 µM); 91.09 ± 0.99 ^ns percentage of control with HepG2 cells (HepG2, 50 µM); 81.19 ± 1.48 percentage of control in the series with HepG2 cells (HepG2, 125 µM); 64.81 ± 0.54 percentage of control with HepG2 cells (HepG2, 200 µM); 66.75 ± 1.11 percentage of control in the series with HepG2 cells (HepG2, 300 µM); 68.89 ± 0.51 percentage of control in the series on HepG2 cells (HepG2, 400 µM). The Cell viability is recorded as 70.10 ± 1.98 percentage of control in the series with HepG2 cells (HepG2, 500 µM); 104.30 ± 0.29 ^ns percentage of control in the series with SH-SY5Y cells (25 µM); 96.08 ± 0.78 ^ns percentage of control in the series with SH-SY5Y cells (50 µM); 80.25 ± 1.53 percentage of control with SH-SY5Y cells (125 µM); 72.17 ±0.54 percentage of control in the series on SH-SY5Y cells (200 µM); 58.92 ± 0.70 percentage of control with SH-SY5Y cells (300 µM). The figures for the Cell viability in the series on SH-SY5Y cells (400 µM) and in the series with SH-SY5Y cells (500 µM) were 55.14 ± 0.50 percentage of control and 55.28 ± 0.55 percentage of control, respectively. Also, the “Cytotoxicity (in words)” value in the series with HepG2 cells and with SH-SY5Y cells was “no obvious cytotoxicity” in each case.
For the molecule `Cc1nc(C)c(C(=O)OCCCOC(=O)c2ccccn2)nc1C` [Compound 8r, 3-[(Pyridine-2-carbonyl)oxy]propyl 3,5,6-trimethylpyrazine-2-carboxylate], the IC50 at AChE (from electric eel) stood at 0.00025 ± 0.00039 µM; in series [1] it was 3300 ± 60 µM; against Aβ (1-42) [2], 49.14 ± 0.025 µM. In addition, on AChE (from electric eel) (stronger than tacrine), the “AChE inhibition potency relative to tacrine” value is 293 times. For the same molecule, the Cell viability in the series on HepG2 cells (HepG2, 25 µM) was 102.83 ± 0.57 ^ns percentage of control; with HepG2 cells (HepG2, 50 µM), 88.05 ± 1.12 ^ns percentage of control; in the series on HepG2 cells (HepG2, 125 µM), 81.72 ± 0.87 percentage of control; in the series with HepG2 cells (HepG2, 200 µM), 71.10 ± 1.06 percentage of control; in the series with HepG2 cells (HepG2, 300 µM), 71.10 ± 0.80 percentage of control; in the series on HepG2 cells (HepG2, 400 µM), 68.85 ± 1.11 percentage of control. For the same molecule, the Cell viability with HepG2 cells (HepG2, 500 µM) is 68.31 ± 0.53 percentage of control; in the series on SH-SY5Y cells (25 µM), 94.51 ± 0.45 ^ns percentage of control; in the series on SH-SY5Y cells (50 µM), 91.46 ± 0.29 ^ns percentage of control; in the series with SH-SY5Y cells (125 µM), 83.23 ± 0.78 percentage of control; in the series on SH-SY5Y cells (200 µM), 83.26 ± 2.74 percentage of control; with SH-SY5Y cells (300 µM), 68.43 ± 0.48 percentage of control. Besides, the Cell viability with SH-SY5Y cells (400 µM) is 62.68 ± 0.56 percentage of control; in the series on SH-SY5Y cells (500 µM) it was 66.38 ± 1.57 percentage of control. Also, the “Cytotoxicity (in words)” value with HepG2 cells and in the series with SH-SY5Y cells was “no obvious cytotoxicity” each time.
